Test results as given in patent publication US8822449B2, “Substituted aminoindanes and analogs thereof, and the pharmaceutical use thereof” (Sanofi, priority 2008, dated 2014).

These molecules were tested against T1, sodium-proton exchanger of subtype 3 (NHE3) (Homo sapiens, UniProt P48764) (assay: Recovery of intracellular pH (pHi) after acidification in LAP1 cells stably expressing NHE3 (BCECF fluorescence, FLIPR)). Conditions: Activity range (inhibitory effect on NHE3), LAP1 cells stably expressing NHE3; pH recovery after acidification; range 1 is % inhibition at 10 μM.
T1 construct: expressed in transfected cells
T1 sequence (P48764 26-834): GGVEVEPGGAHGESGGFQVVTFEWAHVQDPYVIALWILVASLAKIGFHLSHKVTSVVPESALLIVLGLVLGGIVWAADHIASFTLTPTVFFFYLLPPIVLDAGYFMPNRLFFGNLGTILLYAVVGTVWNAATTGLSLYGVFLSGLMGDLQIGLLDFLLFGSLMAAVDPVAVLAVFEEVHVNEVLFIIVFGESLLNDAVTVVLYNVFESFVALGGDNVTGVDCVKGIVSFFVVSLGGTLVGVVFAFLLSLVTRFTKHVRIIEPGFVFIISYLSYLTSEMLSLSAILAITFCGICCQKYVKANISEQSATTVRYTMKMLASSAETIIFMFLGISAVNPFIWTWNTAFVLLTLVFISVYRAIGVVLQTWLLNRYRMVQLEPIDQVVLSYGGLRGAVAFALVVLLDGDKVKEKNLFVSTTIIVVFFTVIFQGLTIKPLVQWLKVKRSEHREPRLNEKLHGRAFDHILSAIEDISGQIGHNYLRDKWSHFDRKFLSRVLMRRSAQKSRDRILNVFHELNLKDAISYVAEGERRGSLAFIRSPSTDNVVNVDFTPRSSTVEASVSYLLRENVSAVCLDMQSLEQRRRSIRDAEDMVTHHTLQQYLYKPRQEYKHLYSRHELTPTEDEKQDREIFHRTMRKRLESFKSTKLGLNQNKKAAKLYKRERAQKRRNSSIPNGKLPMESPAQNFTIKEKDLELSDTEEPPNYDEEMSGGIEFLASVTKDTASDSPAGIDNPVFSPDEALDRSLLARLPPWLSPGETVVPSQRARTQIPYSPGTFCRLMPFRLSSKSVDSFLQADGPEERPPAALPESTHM
Format: cell-based

Q: With `O=C1CCCN1c1cccc(O[C@H]2c3ccccc3C[C@@H]2N2CCCC2)c1` (racemic) [Example 255, 1-[3-(rac-trans-(1,2)-2-pyrrolidin-1-ylindan-1-yloxy)phenyl]pyrrolidin-2-one] as the molecule, how does the IC50 read?
A: The IC50 was 1000 to 10000 nM.

Same assay, conditions: LAP1 cells stably expressing NHE3; pH recovery after acidification; range 1 is % inhibition at 10 μM; read-out: Activity range (inhibitory effect on NHE3)

Q: With `CC(=O)Nc1cccc(O[C@@H]2c3ccccc3C[C@H]2N2CCSCC2)c1` (racemic) [Example 642, N-[3-(rac-trans-(1,2)-2-thiomorpholin-4-ylindan-1-yloxy)phenyl]acetamide] as the molecule, how does the IC50 read?
A: The IC50 was 1000 to 10000 nM.

Q: Which IC50 does the source give for `N#Cc1ccc(O[C@H]2c3ccccc3CC[C@@H]2N2CCC[C@@H](N)C2)c(Cl)c1` (racemic) [Example 514, 4-[rac-trans-(1,2)-2-((R)-3-aminopiperidin-1-yl)-1,2,3,4-tetrahydronaphthalen-1-yloxy]-3-chlorobenzonitrile] here?
A: Its IC50 is 1000 to 10000 nM.

Q: How did the IC50 turn out when `CCc1nc(C)cn1-c1ccc(F)c(O[C@H]2c3cc(Cl)cc(Cl)c3C[C@@H]2N2CC[C@@H](O)C2)c1` [Example 725, (R)-1-{trans-(1S,2S)-4,6-Dichloro-1-[5-(2-ethyl-4-methyl-imidazol-1-yl)-2-fluoro-phenoxy]-indan-2-yl}-pyrrolidin-3-ol] was run?
A: Its IC50 is 1000 to 10000 nM.

Q: Which inhibition at 10 µM does the source give for `NS(=O)(=O)c1ccc(O[C@H]2c3cc(Cl)cc(Cl)c3C[C@@H]2N2CCC(F)(F)CC2)cc1` [Example 484, 4-[(1S,2S)-4,6-dichloro-2-(4,4-difluoropiperidin-1-yl)indan-1-yloxy]benzenesulfonamide] here?
A: Its inhibition at 10 µM is 20 to 50%.

Q: `O=C1CCCN1c1ccc(Cl)c(O[C@H]2c3cc(Cl)cc(Cl)c3C[C@@H]2N2CC[C@@H](O)C2)c1` [Example 336, 1-{4-chloro-3-[(1S,2S)-4,6-dichloro-2-((R)-3-hydroxypyrrolidin-1-yl)indan-1-yloxy]phenyl}pyrrolidin-2-one] was tested. Which IC50 did it give?
A: Its IC50 is less than 1000 nM.

Q: How did the IC50 turn out when `Cc1nnc(C)n1-c1ccc(C(=O)O[C@H]2c3cc(Cl)cc(Cl)c3C[C@@H]2N2CC[C@@H](O)C2)c(Cl)c1` [Example 710, 2-Chloro-4-(3,5-dimethyl-[1,2,4]triazol-4-yl)-benzoic acid trans-(1S,2S)-4,6-dichloro-2-((R)-3-hydroxy-pyrrolidin-1-yl)-indan-1-yl ester] was run?
A: Its IC50 is 1000 to 10000 nM.

Q: Which IC50 does the source give for `N[C@@H]1CCCN([C@H]2Cc3c(Cl)cc(Cl)cc3[C@@H]2Oc2ccc(F)c3cccnc23)C1` [Example 27, (R)-1-[(1S,2S)-4,6-dichloro-1-(5-fluoroquinolin-8-yloxy)indan-2-yl]piperidin-3-ylamine] here?
A: The IC50 was less than 1000 nM.

Q: How did the IC50 turn out when `Cc1nnc(C)n1-c1ccc(O[C@H]2c3cc(Cl)ccc3C[C@@H]2N2CC[C@@H](F)C2)c(Cl)c1` [Example 558, 4-{3-chloro-4-[trans-(1S,2S)-6-chloro-2-((R)-3-fluoropyrrolidin-1-yl)indan-1-yloxy]phenyl}-3,5-dimethyl-4H-[1,2,4]triazole] was run?
A: Its IC50 is less than 1000 nM.

Q: `NCC1CCN([C@@H]2Cc3ccccc3[C@H]2Oc2ccc(S(N)(=O)=O)c(Cl)c2Cl)CC1` (racemic) [Example 545, 4-[rac-trans-(1,2)-2-(4-aminomethylpiperidin-1-yl)indan-1-yloxy]-2,3-dichlorobenzenesulfonamide] was tested. Which IC50 did it give?
A: The IC50 was 1000 to 10000 nM.

Q: With `Cc1ccc(O[C@H]2c3ccccc3CC[C@@H]2N2CCC[C@H](N)C2)cc1Cl` (racemic) [Example 161, (S)-1-[rac-trans-(1,2)-1-(3-chloro-4-methylphenoxy)-1,2,3,4-tetrahydronaphthalen-2-yl]piperidin-3-ylamine] as the molecule, how does the inhibition at 10 µM read?
A: The inhibition at 10 µM was 20 to 50%.

Q: Which inhibition at 10 µM does the source give for `N[C@@H]1CCCN([C@H]2CCc3ccccc3[C@@H]2Oc2ccc(F)cc2F)C1` (racemic) [Example 32, (R)-1-[rac-trans-(1,2)-1-(2,4-difluorophenoxy)-1,2,3,4-tetrahydronaphthalen-2-yl]piperidin-3-ylamine] here?
A: Its inhibition at 10 µM is 20 to 50%.

Q: How did the inhibition at 10 µM turn out when `N[C@H]1CCCN([C@H]2CCc3ccccc3[C@@H]2Oc2cccc(Cl)c2)C1` (racemic) [Example 165, (S)-1-[rac-trans-(1,2)-1-(3-chlorophenoxy)-1,2,3,4-tetrahydronaphthalen-2-yl]piperidin-3-ylamine] was run?
A: Its inhibition at 10 µM is 20 to 50%.

Q: For `Cc1cc(F)ccc1O[C@@H]1c2ccccc2C[C@H]1N1C[C@H]2CNC[C@H]2C1` (racemic) [Example 16, 2-[rac-trans-(1,2)-1-(4-fluoro-2-methylphenoxy)indan-2-yl]octahydropyrrolo[3,4-c]pyrrole], which IC50 is on record?
A: Its IC50 is 1000 to 10000 nM.

Q: Which IC50 does the source give for `COCCN(C)[C@H]1Cc2c(Cl)cc(Cl)cc2[C@@H]1Oc1ccc(-n2c(C)nnc2C)cc1` [Example 243, {trans-(1S,2S)-4,6-dichloro-1-[4-(3,5-dimethyl-[1,2,4]triazol-4-yl)phenoxy]indan-2-yl}-(2-methoxyethyl)-methylamine] here?
A: The IC50 was less than 1000 nM.

Q: Which IC50 does the source give for `NC(=O)c1ccc(O[C@@H]2c3ccccc3C[C@H]2N2CCC[C@H](N)C2)cc1` (racemic) [Example 537, 4-[rac-trans-(1,2)-2-((S)-3-aminopiperidin-1-yl)indan-1-yloxy]benzamide] here?
A: Its IC50 is 1000 to 10000 nM.

Q: With `Cc1nnc(C)n1-c1ccc(O[C@H]2c3ccccc3C[C@@H]2N2CCCC2)cc1` (racemic) [Example 405, 3,5-dimethyl-4-[4-(rac-trans-(1,2)-2-pyrrolidin-1-ylindan-1-yloxy)phenyl]-4H-[1,2,4]triazole] as the molecule, how does the IC50 read?
A: Its IC50 is less than 1000 nM.

Q: How did the inhibition at 10 µM turn out when `CS(=O)(=O)c1ccc(O[C@@H]2c3ccccc3C[C@H]2NC2CCCCCC2)cc1` (racemic) [Example 711, Cycloheptyl-[rac-trans-(1,2)-1-(4-methanesulfonyl-phenoxy)-indan-2-yl]-amine] was run?
A: Its inhibition at 10 µM is 20 to 50%.

Q: `Cc1nnc(C)n1-c1ccc(O[C@H]2c3cc(Cl)cc(Cl)c3C[C@@H]2N2CCCN(C)CC2)c(F)c1` [Example 346, 1-{trans-(1S,2S)-4,6-dichloro-1-[4-(3,5-dimethyl-[1,2,4]triazol-4-yl)-2-fluorophenoxy]indan-2-yl}-4-methyl-[1,4]diazepane] was tested. Which IC50 did it give?
A: The IC50 was less than 1000 nM.

Q: With `N#Cc1ccc(O[C@H]2c3ccccc3CC[C@@H]2N2CCC[C@H](N)C2)c([N+](=O)[O-])c1` (racemic) [Example 534, 4-[rac-trans-(1,2)-2-((S)-3-aminopiperidin-1-yl)-1,2,3,4-tetrahydronaphthalen-1-yloxy]-3-nitrobenzonitrile] as the molecule, how does the inhibition at 10 µM read?
A: The inhibition at 10 µM was 20 to 50%.

Q: `CC(C)[C@H]1COC(=O)N1c1ccc(F)c(O[C@H]2c3cc(Cl)cc(F)c3C[C@@H]2N2CC[C@@H](O)C2)c1` [Example 210, (S)-3-{3-[(1S,2S)-6-chloro-4-fluoro-2-((R)-3-hydroxypyrrolidin-1-yl)indan-1-yloxy]-4-fluorophenyl}-4-isopropyloxazolidin-2-one] was tested. Which IC50 did it give?
A: Its IC50 is 1000 to 10000 nM.

Q: How did the IC50 turn out when `CC1(C)NC(=O)N(c2ccc(Cl)c(O[C@H]3c4cc(Cl)cc(Cl)c4C[C@@H]3N3CC[C@@H](O)C3)c2)C1=O` [Example 431, 3-{4-chloro-3-[(1S,2S)-4,6-dichloro-2-((R)-3-hydroxypyrrolidin-1-yl)indan-1-yloxy]phenyl}-5,5-dimethylimidazolidine-2,4-dione] was run?
A: Its IC50 is 1000 to 10000 nM.

Q: With `COc1cc(C#N)cc(Cl)c1O[C@H]1c2ccccc2CC[C@@H]1N1CCC[C@@H](N)C1` (racemic) [Example 512, 4-[rac-trans-(1,2)-2-((R)-3-aminopiperidin-1-yl)-1,2,3,4-tetrahydronaphthalen-1-yloxy]-3-chloro-5-methoxy-benzonitrile] as the molecule, how does the inhibition at 10 µM read?
A: Its inhibition at 10 µM is 20 to 50%.

Q: Which IC50 does the source give for `CC(=O)Nc1cccc(O[C@H]2c3cc(F)cc(Cl)c3C[C@@H]2N2CCNCC2)c1` (racemic) [Example 650, N-[3-(rac-trans-(1,2)-4-chloro-6-fluoro-2-piperazin-1-ylindan-1-yloxy)phenyl]acetamide] here?
A: Its IC50 is less than 1000 nM.

Q: Which IC50 does the source give for `COc1cc(Cl)cc(O[C@@H]2c3ccccc3C[C@H]2N2CCC(CN)CC2)c1` (racemic) [Example 612, C-{1-[rac-trans-(1,2)-1-(3-chloro-5-methoxyphenoxy)indan-2-yl]piperidin-4-yl}methylamine] here?
A: The IC50 was 1000 to 10000 nM.

Q: How did the inhibition at 10 µM turn out when `N#Cc1cc(Cl)ccc1O[C@H]1c2ccccc2CC[C@@H]1N1CCC[C@H](N)C1` (racemic) [Example 371, 2-[rac-trans-(1,2)-2-((S)-3-aminopiperidin-1-yl)-1,2,3,4-tetrahydronaphthalen-1-yloxy]-5-chlorobenzonitrile] was run?
A: The inhibition at 10 µM was 20 to 50%.

Q: `CC(=O)Nc1cccc(O[C@H]2c3cc(Cl)cc(Cl)c3C[C@@H]2N2CCOCC2)c1` (racemic) [Example 646, N-[3-(rac-trans-(1,2)-4,6-dichloro-2-morpholin-4-ylindan-1-yloxy)phenyl]acetamide] was tested. Which inhibition at 10 µM did it give?
A: The inhibition at 10 µM was 20 to 50%.

Q: With `Cc1noc(C)c1-c1cc(O[C@H]2c3ccccc3C[C@@H]2N2CCCC2)ccc1F` [Example 489, 4-[2-fluoro-5-(trans-(1S,2S)-2-pyrrolidin-1-ylindan-1-yloxy)phenyl]-3,5-dimethylisoxazole] as the molecule, how does the inhibition at 10 µM read?
A: The inhibition at 10 µM was 20 to 50%.

Q: Which IC50 does the source give for `N[C@H]1CCCN([C@@H]2Cc3ccccc3[C@H]2Oc2ccc(-n3cncn3)cc2)C1` (racemic) [Example 172, (S)-1-[rac-trans-(1,2)-1-(4-[1,2,4]triazol-1-ylphenoxy)indan-2-yl]piperidin-3-ylamine] here?
A: The IC50 was 1000 to 10000 nM.
